# Measured values: patent US20150322403A1, “REGULATION OF EUKARYOTIC GENE EXPRESSION BY RIBOSOMAL READING-FRAME SWITCH EFFICIENCY CONTROL VIA REGULATORY ELEMENT UPSTREAM OF THE FRAMESHIFTING SITE” (NATIONAL CHUNG HSING UNIVERSITY, priority 2014, published 2015)
# B1: GlcT protein: GlcT antiterminator protein binding the RAT sequence of Bacillus subtilis ptsGHI operon (protein, UniProt O31691 1-281, looked up)
# PtsGHI operon antiterminator: MNGSFTVKKVLNNNVLIASHHKYSEVVLIGKGIGFGKKQDDVIEDKGYDKMFILKDEKEQKQFKKLLDYVDEKLVDISNDVIYHISNRTNHSLNEHIHIALTDHIAFAIKRQQQGFDMKNPFLMETQSLYPEEYQIAKEVIDMINEKAGLCLPEGEIGFIALHIHSALTNRPLSEVNQHSQLMAQLVEVIEDSFQMKVNKESVNYLRLIRHIRFTIERIKKEEPTKEPEKLMLLLKNEYPLCYNTAWKLIKILQQTLKKPVHEAEAVYLTLHLYRLTNKIS
# Tests used:
# [1] = tested on: theo-OFF2 element and SAH-sensing pseudoknot stimulator; test: -1 PRF activity, theo-OFF2 plus SAH-sensing pseudoknot, wheat germ lysate; format: biochemical; details: theo-OFF2 fused with SAH-dependent stimulator
# Source text: We also fused theo-OFF2 with an SAH-dependent −1 PRF stimulator and examined the ligand-dependent −1 PRF activity in vitro using wheat germ lysate.
# [2] = tested on: theo-OFF2 element; test: -1 PRF activity analysis, upstream theo-OFF2 element, wheat germ extract; details: wheat germ lysate, compared with reticulocyte lysate
# [3] = tested on: theo-ON element; test: in vitro -1 PRF activity analysis, upstream theo-ON element, reticulocyte lysate; details: DU177 pseudoknot stimulator
# [4] = tested on: theo-OFF1 element (theophylline aptamer); test: in vitro -1 PRF activity analysis, upstream theo-OFF1 element, reticulocyte lysate; details: DU177 pseudoknot stimulator, increasing amounts of theophylline
# Source text: The boxed nucleotides were deleted in the negative control theo-mOFF1 element.
# [5] = tested on: GlcT-OFF RNA element (RAT sequence) upstream of the slippery site; test: in vitro -1 PRF activity analysis, upstream GlcT-OFF element, reticulocyte lysate; format: biochemical; details: DU177 pseudoknot stimulator, increasing amounts of protein
# Source text: (§1) Mfold was used to predict structures and free energies of the attenuator and anti-attenuator hairpins.
# As the ribonucleic-antiterminator (RAT) sequence of Bacillus subtilis ptsGHI operon adopts an unstable internal loop conformation and can be stabilized by the binding of GlcT antiterminator protein (Langbein, I. et al, J. Mol. Biol. 293, 795-805, 1999), we designed a chimeric RNA element containing an RAT sequence (GlcT-OFF) with the 3′-side of RAT internal loop embedded in a stable hairpin stem and placed the chimeric RNA element upstream of the slippery site with a potent downstream −1 PRF stimulator (FIG. 3A). We rationalized that the engineered hairpin is the dominant conformation and serves as an upstream −1 PRF attenuator, whereas the addition of GlcT protein should disrupt the attenuator hairpin via RAT-GlcT complex formation and thus restore −1 PRF activity.
# We then designed the second chimera to down-regulate the −1 PRF by the formation of an efficient attenuator hairpin promoted by the same RNA-protein interactions (FIG. 3A).
# [6] = tested on: GlcT-ON RNA element; test: in vitro -1 PRF activity analysis, upstream GlcT-ON element, reticulocyte lysate; format: biochemical; details: DU177 pseudoknot stimulator, increasing amounts of protein
# Source text: as §1
# Therefore, the GlcT-ON RNA element is embedded with three potential RNA motifs; that is, an RAT internal loop, an anti-attenuator hairpin and an efficient −1 PRF attenuator hairpin with the component of the anti-attenuator hairpin being overlapped with the other two motifs. Without the GlcT protein, this anti-attenuator hairpin might be the dominant conformation. Upon GlcT protein addition, the equilibrium might be driven by RNA-protein interaction to disrupt the anti-attenuator hairpin stem and thus release its 3′-side to facilitate the formation of an efficient −1 PRF attenuator hairpin.
# Together, these proof-of-principle experiments indicate that −1 PRF activity can be regulated in-trans via a set of RNA-protein interactions designed to control the formation of an upstream −1 PRF attenuation hairpin.
molecule,measurement,setting,value
Nc1ncnc2c1ncn2[C@@H]1O[C@H](CSCC[C@H](N)C(=O)O)[C@@H](O)[C@H]1O [SAH],-1 frameshifting efficiency in wheat germ lysate,[1],only mildly increased
Cn1c(=O)c2[nH]cnc2n(C)c1=O [theophylline],"dynamic range of theophylline-dependent -1 PRF activity, theo-OFF2",[2],even higher dynamic range
same,-1 PRF activity of reporter with theo-ON,[3],down-regulation
same,in vitro -1 PRF activity of reporter harboring theo-OFF1,[4],up-regulated
B1,in vitro -1 PRF efficiency of reporter containing GlcT-OFF,[5],up-regulated
same,in vitro -1 PRF activity of reporter containing GlcT-ON,[6],repressed
